The test system of data set [1] is VACV. Description: microbe, parasite or virus in culture. The class given is cell-based. The following applies: Orthopoxvirus vaccinia, Vero C1008, 24 h.
Data set [2] is described as follows: in vitro. The following applies: African green monkey.
Data set [3] has as its system CPXV. The experiment in a line: microbe, parasite or virus in culture. In kind it is cell-based. As to conditions: Cowpox virus, Vero C1008, 24 h.
The nature of data set [4]: in vitro. The following applies: human.
Data set [5] has as its system CPXV. Description: microbe, parasite or virus in culture. The class given is cell-based.
Data set [6] has as its system VACV. Description: microbe, parasite or virus in culture. The following applies: Orthopoxvirus vaccinia, Huh-7, 24 h. In kind it is cell-based.

Data on two compounds can be found in patent publication US20230233591A1, “METHOD FOR TREATING […]” (priority 2020, published 2023).

Structures can show the parent of a compound that is named as a salt. Where only a bound is given, the exact number is not on record here.

As to `NC(=O)c1cn([C@@H]2O[C@H](CO)[C@@H](O)[C@H]2O)c2ncnc(N)c12` [Oya1, 4-amino-7-((2R,3R,4S,5R)-3,4-dihydroxy-5-(hydroxymethyl)tetrahydrofuran-2-yl)-7H-pyrrolo[2,3-d]pyrimidine-5-carboxamide], the IC50 in the data set with VACV [1] stood at 0.02 ± 0.01 µM; in the data set with CPXV [3], 0.2 ± 0.01 µM; in the data set on CPXV [5] (Cowpox virus, Huh-7, 24 h), 0.22 ± 0.01 µM; in the data set on VACV [6], 0.05 ± 0.01 µM. Further, the CC50 in “in vitro [2]” and in “in vitro [4]” was > 0.6 µM throughout.

For the compound `NC(=O)c1cn([C@@H]2O[C@H](CO)[C@@H](O)[C@H]2O)c2ncnc(N)c12` [Oya2, 4-amino-7-((2R,3R,4S,5R)-3,4-dihydroxy-5-(hydroxymethyl)tetrahydrofuran-2-yl)-7H-pyrrolo[2,3-d]pyrimidine-5-carboxamide hydrochloride], half-maximal inhibition in the data set on CPXV [5] (hydrochloride) (IC50) required 0.24 ± 0.01 µM.
